Values after ≈ are worked out from the molar mass of the structure shown. Where two headings read alike, the source gives them in different places.
How the values were obtained:
Influenza A0 = experiment: microbe, parasite or virus in culture; assay type: cell-based; conditions: virus A = Influenza A0, MDCK, Vero and HEL cells, 2 or 3 days
Influenza A1 = experiment: microbe, parasite or virus in culture; assay type: cell-based
Influenza B = experiment: microbe, parasite or virus in culture; assay type: cell-based
Parainfluenza Type 3 = experiment: microbe, parasite or virus in culture; assay type: cell-based; conditions: virus E = Parainfluenza Type 3
ECHO = experiment: microbe, parasite or virus in culture; assay type: cell-based
Coxsackie Type B5 = experiment: microbe, parasite or virus in culture; assay type: cell-based; conditions: virus G = Coxsackie Type B5
Rhino = experiment: microbe, parasite or virus in culture; assay type: cell-based
influenza A0 virus = experiment: animal or person; assay type: in vivo, mice
[1] = Acute toxicity in mice (LD50); assay type: in vivo; conditions: ddY male mice, suspended in 5% Arabic gum solution, observed for 7 days; for LD50 at 168 h: mouse, in vivo
Procedure: Experimental Example 7: Acute Toxicity in Mice
Each compound of the invention was suspended in 5% Arabic gum solution and given orally (p.o.) or intraperitoneally (i.p.) to groups of ten ddY male mice weighed from 24 to 26 g at the dosage volume of 10 ml/kg. […] LD50 was determined according to the method of Wilcoxon and Litchfield.

influenza virus A/WSN = experiment: animal or person; assay type: in vivo, mice; conditions: in Mus musculus, 360 h, read-out: Survival rate
[2] = Mus musculus, 360 h, oral, twice a day for 14 days, survivors at 15th day, read-out: Survival rate
[3] = Mus musculus, ip, 360 h, intraperitoneal, twice a day for 14 days, survivors at 15th day, read-out: Survival rate
[4] = ip, i.p., read-out: LD50 value, Intraperitoneal administration
[5] = po, p.o., read-out: LD50 value, Oral administration

SMILES | MIC (Influenza A0) | MIC (Influenza A1) | MIC (Influenza B) | MIC (Parainfluenza Type 3) | MIC (ECHO) | MIC (Coxsackie Type B5) | MIC (Rhino) | responders at 300 mg/kg (influenza A0 virus; [2]) | responders at 100 mg/kg (influenza A0 virus; [3]) | LD50 at 168 h [1, 4] | LD50 at 168 h [1, 5] | also measured
NC(=O)C(=O)NNS(=O)(=O)c1cc(C(=O)O)c(Cl)cc1Cl [Compound 24] | 100 µg/mL (≈ 281 µM) | 300 µg/mL (≈ 842 µM) | 300 µg/mL (≈ 842 µM) | 300 µg/mL (≈ 842 µM) | 300 µg/mL (≈ 842 µM) | 300 µg/mL (≈ 842 µM) | 100 µg/mL (≈ 281 µM) | 50% | 40% | > 1000 mg/kg | > 3000 mg/kg | 
NS(=O)(=O)c1cc(C(=O)O)c(Cl)cc1F [Compound 17] | 30 µg/mL (≈ 118 µM) | 300 µg/mL (≈ 1180 µM) | 300 µg/mL (≈ 1180 µM) | 300 µg/mL (≈ 1180 µM) | 300 µg/mL (≈ 1180 µM) | 300 µg/mL (≈ 1180 µM) | 300 µg/mL (≈ 1180 µM) | 40% | 40% | > 1000 mg/kg | > 3000 mg/kg | 
NS(=O)(=O)c1cc(Cl)cc(C(=O)O)c1 [Compound 25] | 30 µg/mL (≈ 127 µM) | 300 µg/mL (≈ 1270 µM) | 100 µg/mL (≈ 424 µM) | 300 µg/mL (≈ 1270 µM) | 300 µg/mL (≈ 1270 µM) | 300 µg/mL (≈ 1270 µM) | 300 µg/mL (≈ 1270 µM) | 50% | 40% | > 1000 mg/kg | > 3000 mg/kg | 
N=C(N)NNS(=O)(=O)c1cc(C(=O)O)c(Cl)cc1Cl [Compound 22] | 100 µg/mL (≈ 306 µM) | 300 µg/mL (≈ 917 µM) | 300 µg/mL (≈ 917 µM) | 300 µg/mL (≈ 917 µM) | 100 µg/mL (≈ 306 µM) | 300 µg/mL (≈ 917 µM) | 300 µg/mL (≈ 917 µM) | 40% | 40% | > 1000 mg/kg | > 3000 mg/kg | 
NS(=O)(=O)c1cc(C(=O)O)c(F)cc1Cl [Compound 16] | 30 µg/mL (≈ 118 µM) | 300 µg/mL (≈ 1180 µM) | 300 µg/mL (≈ 1180 µM) | 300 µg/mL (≈ 1180 µM) | 300 µg/mL (≈ 1180 µM) | 30 µg/mL (≈ 118 µM) | 300 µg/mL (≈ 1180 µM) | 50% | 50% | > 1000 mg/kg | > 3000 mg/kg | 
NS(=O)(=O)c1cc(C(=O)O)cc(Cl)c1Cl [Compound 20] | 10 µg/mL (≈ 37 µM) | 100 µg/mL (≈ 370 µM) | 100 µg/mL (≈ 370 µM) | 30 µg/mL (≈ 111 µM) | 100 µg/mL (≈ 370 µM) | 300 µg/mL (≈ 1110 µM) | 30 µg/mL (≈ 111 µM) | 80% | 70% | > 1000 mg/kg | > 3000 mg/kg | responders at 30 mg/kg (influenza A0 virus; [2]): 40%; responders at 100 mg/kg (influenza A0 virus; [2]): 60%; responders at 10 mg/kg (influenza A0 virus; Mus musculus, ip, 360 h, intraperitoneal, 10 mg/kg, twice a day for 14 days, survivors at 15th day, read-out: Survival rate): 40%; responders at 30 mg/kg (influenza A0 virus; [3]): 60%; protective action against death due to the infection (influenza A0 virus; result in words, Tables 3 and 4): extremely excellent activity
NS(=O)(=O)c1cc(Br)cc(C(=O)O)c1 [Compound 26] | 30 µg/mL (≈ 107 µM) | 300 µg/mL (≈ 1070 µM) | 300 µg/mL (≈ 1070 µM) | 300 µg/mL (≈ 1070 µM) | 100 µg/mL (≈ 357 µM) | 300 µg/mL (≈ 1070 µM) | 300 µg/mL (≈ 1070 µM) | 50% | 40% | > 1000 mg/kg | > 3000 mg/kg | 
NS(=O)(=O)c1cc(C(=O)OCc2ccccc2)c(Cl)cc1Cl [Compound 39] |  |  |  |  |  |  |  |  |  | > 1000 mg/kg | > 3000 mg/kg | responders at 100 mg/kg (influenza virus A/WSN; po): 30%; responders at 300 mg/kg (influenza virus A/WSN; po): 40%
CCOC(=O)c1cc(S(N)(=O)=O)c(F)cc1Cl [Compound 42] |  |  |  |  |  |  |  |  |  | > 1000 mg/kg | > 3000 mg/kg | responders at 100 mg/kg (influenza virus A/WSN; po): 40%; responders at 300 mg/kg (influenza virus A/WSN; po): 50%
NS(=O)(=O)c1cc(C(=O)O)cc([N+](=O)[O-])c1Cl [Compound 15] | 30 µg/mL (≈ 107 µM) | 300 µg/mL (≈ 1070 µM) | 300 µg/mL (≈ 1070 µM) | 300 µg/mL (≈ 1070 µM) | 100 µg/mL (≈ 356 µM) | 300 µg/mL (≈ 1070 µM) | 300 µg/mL (≈ 1070 µM) | 50% | 50% | > 1000 mg/kg | > 3000 mg/kg | 
CCC(C)OC(=O)c1cc(S(N)(=O)=O)c(Cl)cc1Cl (stereo not drawn) [Compound 36] |  |  |  |  |  |  |  |  |  | > 1000 mg/kg | > 3000 mg/kg | responders at 30 mg/kg (influenza virus A/WSN; ip): 30%; responders at 100 mg/kg (influenza virus A/WSN; ip): 40%
CN(CCO)S(=O)(=O)c1cc(C(=O)O)ccc1Cl [Compound 6] | 30 µg/mL (≈ 102 µM) | 300 µg/mL (≈ 1020 µM) | 300 µg/mL (≈ 1020 µM) | 300 µg/mL (≈ 1020 µM) | 100 µg/mL (≈ 340 µM) | 300 µg/mL (≈ 1020 µM) | 300 µg/mL (≈ 1020 µM) | 40% | 60% | > 1000 mg/kg | > 3000 mg/kg | 
CONS(=O)(=O)c1cc(C(=O)O)ccc1Cl [Compound 4] | 30 µg/mL (≈ 113 µM) | 300 µg/mL (≈ 1130 µM) | 100 µg/mL (≈ 376 µM) | 300 µg/mL (≈ 1130 µM) | 300 µg/mL (≈ 1130 µM) | 300 µg/mL (≈ 1130 µM) | 300 µg/mL (≈ 1130 µM) | 40% | 50% | > 1000 mg/kg | > 3000 mg/kg | 
CCNS(=O)(=O)c1cc(C(=O)O)ccc1Cl [Compound 2] |  |  |  |  |  |  |  |  |  |  |  | LD50 value, Intraperitoneal administration ([1]; i.p.): >1,000 mg/kg; LD50 value, Oral administration ([1]; p.o.): >3,000 mg/kg
